Assay results as given in the supplement of paper PMC10307832.

How the values were obtained:
Assay in all cases: relative viability (nuclei count vs DMSO), 5 days (fraction); higher = more cells survive
[1] = tested on: COR-L 105
Summary of the method: (§1)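 Cells from lung cancer lines were seeded into 1536-well plates and, one day later, dosed by pin tool. Treatments were either a single drug or a fixed dose of an anchor drug with five library-drug doses (not always all listed) in √10 steps. After 5 days, nuclei were stained in a one-step fixation (final 0.05% Triton X-100, 1% formaldehyde, 1 ug/ml Hoechst) and counted on 4× images, and relative viability is the treated-to-vehicle nuclei ratio, as the median of duplicate plates.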

[2] = tested on: NCI-H358
Summary of the method: as §1

[3] = tested on: HOP-62
Summary of the method: as §1

[4] = tested on: HCC-44
Summary of the method: as §1

[5] = tested on: NCI-H2342
Summary of the method: as §1

[6] = tested on: 201T
Summary of the method: as §1

[7] = tested on: NCI-H1437
Summary of the method: as §1

[8] = tested on: NCI-H1666
Summary of the method: as §1

[9] = tested on: EKVX
Summary of the method: as §1

[10] = tested on: SW 1573
Summary of the method: as §1

[11] = tested on: PC-3 [JPC-3]
Summary of the method: as §1

[12] = tested on: NCI-H2087
Summary of the method: as §1

[13] = tested on: NCI-H1395
Summary of the method: as §1

[14] = tested on: NCI-H1975
Summary of the method: as §1

[15] = tested on: NCI-H647
Summary of the method: as §1

[16] = tested on: NCI-H2085
Summary of the method: as §1

[17] = tested on: BEN
Summary of the method: as §1

[18] = tested on: LU99A
Summary of the method: as §1

[19] = tested on: EPLC-272H
Summary of the method: as §1

[20] = tested on: H3255
Summary of the method: as §1

[21] = tested on: HCC-827
Summary of the method: as §1

[22] = tested on: LCLC-97TM1
Summary of the method: as §1

[23] = tested on: LOU-NH91
Summary of the method: as §1

In the case of `NC(=O)Nc1cc(-c2cccc(F)c2)sc1C(=O)N[C@H]1CCCNC1` [AZD7762] + CC(=O)Nc1cccc(-n2c(=O)n(C3CC3)c(=O)c3c(Nc4ccc(I)cc4F)n(C)c(=O)c(C)c32)c1 [Trametinib] (partner 0.02 µM), the relative viability ([1]; first compound 0.01 µM) is reported as 0.435, the relative viability ([1]; first compound 0.03162 µM) is reported as 0.462 and the relative viability ([1]; first compound 0.1 µM) is reported as 0.416. For the same molecule, the relative viability ([1]; first compound 0.3162 µM) was 0.444, the relative viability ([1]; first compound 1 µM) was 0.43 and the relative viability ([2]; first compound 0.01 µM) was 0.136. It also gave a relative viability ([2]; first compound 0.03162 µM) of 0.135, a relative viability ([2]; first compound 0.1 µM) of 0.148 and a relative viability ([2]; first compound 0.3162 µM) of 0.145. The relative viability ([2]; first compound 1 µM) was 0.1, the relative viability ([3]; first compound 0.01 µM) was 0.363 and the relative viability ([3]; first compound 0.03162 µM) was 0.367. The relative viability ([3]; first compound 0.1 µM) was 0.407, the relative viability ([3]; first compound 0.3162 µM) was 0.37 and the relative viability ([3]; first compound 1 µM) was 0.343. It also gave a relative viability ([4]; first compound 0.01 µM) of 1.13, a relative viability ([4]; first compound 0.03162 µM) of 1.04 and a relative viability ([4]; first compound 0.1 µM) of 1.12. It also gave a relative viability ([4]; first compound 0.3162 µM) of 1.15, a relative viability ([4]; first compound 1 µM) of 1.16 and a relative viability ([5]; first compound 0.01 µM) of 0.861. The relative viability ([5]; first compound 0.03162 µM) was 0.756, the relative viability ([5]; first compound 0.1 µM) was 0.828 and the relative viability ([5]; first compound 0.3162 µM) was 0.863. The relative viability ([5]; first compound 1 µM) was 0.97, the relative viability ([6]; first compound 0.01 µM) was 0.718 and the relative viability ([6]; first compound 0.03162 µM) was 0.749. It also gave a relative viability ([6]; first compound 0.1 µM) of 0.763, a relative viability ([6]; first compound 0.3162 µM) of 0.724 and a relative viability ([6]; first compound 1 µM) of 0.852. For the same molecule, the relative viability ([7]; first compound 0.01 µM) was 0.561, the relative viability ([7]; first compound 0.03162 µM) was 0.53 and the relative viability ([7]; first compound 0.1 µM) was 0.549. The relative viability ([7]; first compound 0.3162 µM) was 0.662, the relative viability ([7]; first compound 1 µM) was 0.494 and the relative viability ([8]; first compound 0.01 µM) was 0.894. The relative viability ([8]; first compound 0.03162 µM) was 0.898, the relative viability ([8]; first compound 0.1 µM) was 0.927 and the relative viability ([8]; first compound 0.3162 µM) was 0.891. For the same molecule, the relative viability ([8]; first compound 1 µM) was 0.901, the relative viability ([9]; first compound 0.01 µM) was 0.345 and the relative viability ([9]; first compound 0.03162 µM) was 0.502. The relative viability ([9]; first compound 0.1 µM) was 0.371, the relative viability ([9]; first compound 0.3162 µM) was 0.314 and the relative viability ([9]; first compound 1 µM) was 0.279. For the same molecule, the relative viability ([10]; first compound 0.01 µM) was 0.741, the relative viability ([10]; first compound 0.03162 µM) was 0.502 and the relative viability ([10]; first compound 0.1 µM) was 0.584. The relative viability ([10]; first compound 0.3162 µM) was 0.583, the relative viability ([10]; first compound 1 µM) was 0.342 and the relative viability ([11]; first compound 0.01 µM) was 0.699. For the same molecule, the relative viability ([11]; first compound 0.03162 µM) was 0.722, the relative viability ([11]; first compound 0.1 µM) was 0.69 and the relative viability ([11]; first compound 0.3162 µM) was 0.662. It also gave a relative viability ([11]; first compound 1 µM) of 0.515, a relative viability ([12]; first compound 0.01 µM) of 0.211 and a relative viability ([12]; first compound 0.03162 µM) of 0.212. It also gave a relative viability ([12]; first compound 0.1 µM) of 0.248, a relative viability ([12]; first compound 0.3162 µM) of 0.333 and a relative viability ([12]; first compound 1 µM) of 0.254. It also gave a relative viability ([13]; first compound 0.01 µM) of 1.18, a relative viability ([13]; first compound 0.03162 µM) of 1.12 and a relative viability ([13]; first compound 0.1 µM) of 0.92. For the same molecule, the relative viability ([13]; first compound 0.3162 µM) was 0.637, the relative viability ([13]; first compound 1 µM) was 0.368 and the relative viability ([14]; first compound 0.01 µM) was 0.341. For the same molecule, the relative viability ([14]; first compound 0.03162 µM) was 0.377, the relative viability ([14]; first compound 0.1 µM) was 0.331 and the relative viability ([14]; first compound 0.3162 µM) was 0.345. It also gave a relative viability ([14]; first compound 1 µM) of 0.24, a relative viability ([15]; first compound 0.01 µM) of 0.533 and a relative viability ([15]; first compound 0.03162 µM) of 0.579. The relative viability ([15]; first compound 0.1 µM) was 0.456, the relative viability ([15]; first compound 0.3162 µM) was 0.384 and the relative viability ([15]; first compound 1 µM) was 0.16. It also gave a relative viability ([16]; first compound 0.01 µM) of 0.514, a relative viability ([16]; first compound 0.03162 µM) of 0.559 and a relative viability ([16]; first compound 0.1 µM) of 0.632. For the same molecule, the relative viability ([16]; first compound 0.3162 µM) was 0.713, the relative viability ([16]; first compound 1 µM) was 0.357 and the relative viability ([17]; first compound 0.01 µM) was 1.15. It also gave a relative viability ([17]; first compound 0.03162 µM) of 1.11, a relative viability ([17]; first compound 0.1 µM) of 1.09 and a relative viability ([17]; first compound 0.3162 µM) of 1.09. For the same molecule, the relative viability ([17]; first compound 1 µM) was 0.968, the relative viability ([18]; first compound 0.01 µM) was 0.595 and the relative viability ([18]; first compound 0.03162 µM) was 0.522. It also gave a relative viability ([18]; first compound 0.1 µM) of 0.523, a relative viability ([18]; first compound 0.3162 µM) of 0.586 and a relative viability ([18]; first compound 1 µM) of 0.43. The relative viability ([19]; first compound 0.01 µM) was 0.28, the relative viability ([19]; first compound 0.03162 µM) was 0.297 and the relative viability ([19]; first compound 0.1 µM) was 0.277. It also gave a relative viability ([19]; first compound 0.3162 µM) of 0.293, a relative viability ([19]; first compound 1 µM) of 0.227 and a relative viability ([20]; first compound 0.01 µM) of 0.71. For the same molecule, the relative viability ([20]; first compound 0.03162 µM) was 0.72, the relative viability ([20]; first compound 0.1 µM) was 0.698 and the relative viability ([20]; first compound 0.3162 µM) was 0.618. The relative viability ([20]; first compound 1 µM) was 0.682, the relative viability ([21]; first compound 0.01 µM) was 0.577 and the relative viability ([21]; first compound 0.03162 µM) was 0.534. It also gave a relative viability ([21]; first compound 0.1 µM) of 0.561, a relative viability ([21]; first compound 0.3162 µM) of 0.575 and a relative viability ([21]; first compound 1 µM) of 0.376. It also gave a relative viability ([22]; first compound 0.01 µM) of 0.199, a relative viability ([22]; first compound 0.03162 µM) of 0.214 and a relative viability ([22]; first compound 0.1 µM) of 0.185. The relative viability ([22]; first compound 0.3162 µM) was 0.202, the relative viability ([22]; first compound 1 µM) was 0.182 and the relative viability ([23]; first compound 0.01 µM) was 0.78. For the same molecule, the relative viability ([23]; first compound 0.03162 µM) was 0.793, the relative viability ([23]; first compound 0.1 µM) was 0.761 and the relative viability ([23]; first compound 0.3162 µM) was 0.66. The relative viability ([23]; first compound 1 µM) was 0.67.
